According to the NIST ThermoML archive (doi:10.1021/je400486p):
± gives the expanded uncertainty stated by the source.

Columns and labels:
[1] = refractive index (Na D-line) (dimensionless); conditions: 101.33 kPa, Liquid, Standard Abbe refractometry
[2] = 101.3 kPa, Liquid; for viscosity: Concentric cylinders viscometry; for mass density: Vibrating tube method
[3] = xn = mol fraction of the nth substance listed; conditions: 101.3 kPa, Liquid, x1 = 1; for viscosity: Concentric cylinders viscometry; for mass density: Vibrating tube method
[4] = refractive index (Na D-line) (dimensionless); xn = mol fraction of the nth substance listed; conditions: 101.3 kPa, Liquid, Standard Abbe refractometry, x1 = 1

SMILES: COCCOCCOCCOCCOC [2,5,8,11,14-pentaoxapentadecane]
- refractive index ([1]; 288.15 K): 1.4345 ± 0.00037
- refractive index ([1]; 293.15 K): 1.43238 ± 0.00037
- refractive index ([1]; 298.15 K): 1.43027 ± 0.00037
- refractive index ([1]; 303.15 K): 1.42815 ± 0.00037
- refractive index ([1]; 308.15 K): 1.42603 ± 0.00037
- refractive index ([1]; 313.15 K): 1.42394 ± 0.00037
- refractive index ([1]; 318.15 K): 1.42183 ± 0.00037
- refractive index ([1]; 323.15 K): 1.41973 ± 0.00037
- viscosity ([2]; 288.15 K): 4.341 ± 0.051 mPa·s
- mass density ([2]; 288.15 K): 1015.63 ± 0.24 kg/m3
- viscosity ([2]; 293.15 K): 3.834 ± 0.045 mPa·s
- mass density ([2]; 293.15 K): 1011 ± 0.24 kg/m3
- viscosity ([2]; 298.15 K): 3.38 ± 0.04 mPa·s
- mass density ([2]; 298.15 K): 1006.36 ± 0.23 kg/m3
- viscosity ([2]; 303.15 K): 3.004 ± 0.036 mPa·s
- mass density ([2]; 303.15 K): 1001.73 ± 0.23 kg/m3
- viscosity ([2]; 308.15 K): 2.691 ± 0.032 mPa·s
- mass density ([2]; 308.15 K): 997.104 ± 0.23 kg/m3
- viscosity ([2]; 313.15 K): 2.426 ± 0.029 mPa·s
- mass density ([2]; 313.15 K): 992.481 ± 0.23 kg/m3
- viscosity ([2]; 318.15 K): 2.199 ± 0.026 mPa·s
- mass density ([2]; 318.15 K): 987.859 ± 0.23 kg/m3
- viscosity ([2]; 323.15 K): 2.006 ± 0.024 mPa·s
- mass density ([2]; 323.15 K): 983.234 ± 0.23 kg/m3

SMILES: CN1CCCC1=O [N-methylpyrrolidone]
- refractive index ([1]; 288.15 K): 1.47166 ± 0.00037
- refractive index ([1]; 293.15 K): 1.46952 ± 0.00037
- refractive index ([1]; 298.15 K): 1.46736 ± 0.00037
- refractive index ([1]; 303.15 K): 1.4652 ± 0.00037
- refractive index ([1]; 308.15 K): 1.46306 ± 0.00037
- refractive index ([1]; 313.15 K): 1.46095 ± 0.00037
- refractive index ([1]; 318.15 K): 1.45891 ± 0.00037
- refractive index ([1]; 323.15 K): 1.4568 ± 0.00037
- viscosity ([2]; 288.15 K): 1.99 ± 0.023 mPa·s
- mass density ([2]; 288.15 K): 1037.3 ± 0.26 kg/m3
- viscosity ([2]; 293.15 K): 1.823 ± 0.021 mPa·s
- mass density ([2]; 293.15 K): 1032.84 ± 0.26 kg/m3
- viscosity ([2]; 298.15 K): 1.679 ± 0.019 mPa·s
- mass density ([2]; 298.15 K): 1028.38 ± 0.25 kg/m3
- viscosity ([2]; 303.15 K): 1.555 ± 0.018 mPa·s
- mass density ([2]; 303.15 K): 1023.92 ± 0.25 kg/m3
- viscosity ([2]; 308.15 K): 1.444 ± 0.017 mPa·s
- mass density ([2]; 308.15 K): 1019.46 ± 0.24 kg/m3
- viscosity ([2]; 313.15 K): 1.346 ± 0.016 mPa·s
- mass density ([2]; 313.15 K): 1015 ± 0.24 kg/m3
- viscosity ([2]; 318.15 K): 1.259 ± 0.015 mPa·s
- mass density ([2]; 318.15 K): 1010.53 ± 0.24 kg/m3
- viscosity ([2]; 323.15 K): 1.182 ± 0.014 mPa·s
- mass density ([2]; 323.15 K): 1006.06 ± 0.23 kg/m3

SMILES: CCC(C)O (stereo not given) [butan-2-ol]
- refractive index ([1]; 288.15 K): 1.39959 ± 0.00033
- refractive index ([1]; 293.15 K): 1.39748 ± 0.00033
- refractive index ([1]; 298.15 K): 1.39534 ± 0.00033
- refractive index ([1]; 303.15 K): 1.39314 ± 0.00033
- refractive index ([1]; 308.15 K): 1.39086 ± 0.00033
- refractive index ([1]; 313.15 K): 1.38851 ± 0.00033
- refractive index ([1]; 318.15 K): 1.38617 ± 0.00033
- refractive index ([1]; 323.15 K): 1.38372 ± 0.00033
- viscosity ([2]; 288.15 K): 4.29 ± 0.047 mPa·s
- mass density ([2]; 288.15 K): 810.654 ± 0.14 kg/m3
- viscosity ([2]; 293.15 K): 3.576 ± 0.039 mPa·s
- mass density ([2]; 293.15 K): 806.62 ± 0.14 kg/m3
- viscosity ([2]; 298.15 K): 2.954 ± 0.033 mPa·s
- mass density ([2]; 298.15 K): 802.502 ± 0.14 kg/m3
- viscosity ([2]; 303.15 K): 2.469 ± 0.028 mPa·s
- mass density ([2]; 303.15 K): 798.302 ± 0.14 kg/m3
- viscosity ([2]; 308.15 K): 2.08 ± 0.024 mPa·s
- mass density ([2]; 308.15 K): 794.003 ± 0.14 kg/m3
- viscosity ([2]; 313.15 K): 1.766 ± 0.02 mPa·s
- mass density ([2]; 313.15 K): 789.609 ± 0.14 kg/m3
- viscosity ([2]; 318.15 K): 1.512 ± 0.017 mPa·s
- mass density ([2]; 318.15 K): 785.109 ± 0.15 kg/m3
- viscosity ([2]; 323.15 K): 1.303 ± 0.015 mPa·s
- mass density ([2]; 323.15 K): 780.499 ± 0.15 kg/m3

SMILES: CCC(C)O (stereo not given) [butan-2-ol] + CN1CCCC1=O
- viscosity ([3]; 288.15 K): 4.29 ± 0.051 mPa·s
- mass density ([3]; 288.15 K): 810.654 ± 0.14 kg/m3
- viscosity ([3]; 293.15 K): 3.576 ± 0.042 mPa·s
- mass density ([3]; 293.15 K): 806.62 ± 0.14 kg/m3
- viscosity ([3]; 298.15 K): 2.954 ± 0.035 mPa·s
- mass density ([3]; 298.15 K): 802.502 ± 0.14 kg/m3
- viscosity ([3]; 303.15 K): 2.469 ± 0.03 mPa·s
- mass density ([3]; 303.15 K): 798.302 ± 0.14 kg/m3
- viscosity ([3]; 308.15 K): 2.08 ± 0.025 mPa·s
- mass density ([3]; 308.15 K): 794.003 ± 0.14 kg/m3
- viscosity ([3]; 313.15 K): 1.766 ± 0.022 mPa·s
- mass density ([3]; 313.15 K): 789.609 ± 0.14 kg/m3
- viscosity ([3]; 318.15 K): 1.512 ± 0.019 mPa·s
- mass density ([3]; 318.15 K): 785.109 ± 0.15 kg/m3
- viscosity ([3]; 323.15 K): 1.303 ± 0.016 mPa·s
- mass density ([3]; 323.15 K): 780.499 ± 0.15 kg/m3
- refractive index ([4]; 288.15 K): 1.39959 ± 0.00033
- refractive index ([4]; 293.15 K): 1.39748 ± 0.00033
- refractive index ([4]; 298.15 K): 1.39534 ± 0.00033
- refractive index ([4]; 303.15 K): 1.39314 ± 0.00033
- refractive index ([4]; 308.15 K): 1.39086 ± 0.00033
- refractive index ([4]; 313.15 K): 1.38851 ± 0.00033
- refractive index ([4]; 318.15 K): 1.38617 ± 0.00033
- refractive index ([4]; 323.15 K): 1.38372 ± 0.00033

SMILES: CCC(C)O (stereo not given) [butan-2-ol] + COCCOCCOCCOCCOC
- viscosity ([3]; 288.15 K): 4.29 ± 0.047 mPa·s
- mass density ([3]; 288.15 K): 810.654 ± 0.14 kg/m3
- viscosity ([3]; 293.15 K): 3.576 ± 0.039 mPa·s
- mass density ([3]; 293.15 K): 806.62 ± 0.14 kg/m3
- viscosity ([3]; 298.15 K): 2.954 ± 0.033 mPa·s
- mass density ([3]; 298.15 K): 802.502 ± 0.14 kg/m3
- viscosity ([3]; 303.15 K): 2.469 ± 0.028 mPa·s
- mass density ([3]; 303.15 K): 798.302 ± 0.14 kg/m3
- viscosity ([3]; 308.15 K): 2.08 ± 0.024 mPa·s
- mass density ([3]; 308.15 K): 794.003 ± 0.14 kg/m3
- viscosity ([3]; 313.15 K): 1.766 ± 0.02 mPa·s
- mass density ([3]; 313.15 K): 789.609 ± 0.14 kg/m3
- viscosity ([3]; 318.15 K): 1.512 ± 0.017 mPa·s
- mass density ([3]; 318.15 K): 785.109 ± 0.15 kg/m3
- viscosity ([3]; 323.15 K): 1.303 ± 0.015 mPa·s
- mass density ([3]; 323.15 K): 780.499 ± 0.15 kg/m3
- refractive index ([4]; 288.15 K): 1.39959 ± 0.00033
- refractive index ([4]; 293.15 K): 1.39748 ± 0.00033
- refractive index ([4]; 298.15 K): 1.39534 ± 0.00033
- refractive index ([4]; 303.15 K): 1.39314 ± 0.00033
- refractive index ([4]; 308.15 K): 1.39086 ± 0.00033
- refractive index ([4]; 313.15 K): 1.38851 ± 0.00033
- refractive index ([4]; 318.15 K): 1.38617 ± 0.00033
- refractive index ([4]; 323.15 K): 1.38372 ± 0.00033
